Several values for one entry are separate records, joined by “and”; a condition that tells them apart may be missing. Equal values may be shown once.
Tests used:
[1] = test system: fleabane (Erigeron canadiensis, ERICA); assay: Example 2: herbicidal action; whole plants sprayed with A and B in the spraying chamber, high light; type: in vivo, Erigeron canadensis; details: walk-in chamber
[2] = test system: velvet leave (Abutilon theophrasti, ABUTH); assay: as above; type: in vivo; details: growth chamber
[3] = test system: fleabane (Erigeron canadiensis, ERICA); assay: Example 1: herbicidal action; whole plants sprayed with B, PPO inhibitor applied as local leaf treatment, high light; type: in vivo, Erigeron canadensis; details: rate 60 g/ha (A alone)
[4] = test system: moringglory (Pharbitis purpurea, PHBPU); assay: as above; type: in vivo; details: rate 60 g/ha (A alone)
[5] = test system: fleabane (Erigeron canadiensis); assay: Example 3: herbicidal action; whole plants sprayed with B, component A applied as local leaf treatment, high light; type: in vivo, Erigeron canadensis; details: ERICA, rate 60 g/ha (A alone)
[6] = test system: morningglory (Pharbitis purpurea, PHBPU); assay: Example 2: herbicidal action; whole plants sprayed with A and B in the spraying chamber, high light; type: in vivo; details: growth chamber
[7] = 4 DAT, rate 0.250 g/ha (A alone)
[8] = 14 DAT, rate 0.250 g/ha (A alone)
[9] = 4 DAT, rate 0.500 g/ha (A alone)
[10] = 14 DAT, rate 0.500 g/ha (A alone)

Q: `CC(C)N(C)S(=O)(=O)NC(=O)c1cc(-n2c(=O)cc(C(F)(F)F)n(C)c2=O)c(F)cc1Cl` [A.1.1, saflufenacil] was tested. Which “% damage” value ([1]; 1 DAT, rate 0.125 g/ha (A alone)) did it give?
A: The value was 38%.

Q: What about the “% damage” value ([1]; 1 DAT, rate 0.250 g/ha (A alone)) of the same molecule?
A: Its value is 70%.

Q: And the “% damage” value ([1]; 1 DAT, rate 0.350 g/ha (A alone))?
A: The value was 65%.

Q: And the “% damage” value ([1]; 4 DAT, rate 0.125 g/ha (A alone))?
A: The value was 38%.

Q: What about the “% damage” value [1, 7] of the same molecule?
A: Its value is 83%.

Q: And the “% damage” value ([1]; 4 DAT, rate 0.350 g/ha (A alone))?
A: Its value is 90%.

Q: And the “% damage” value ([1]; 14 DAT, rate 0.125 g/ha (A alone))?
A: The value was 18%.

Q: What about the “% damage” value [1, 8] of the same molecule?
A: Its value is 67%.

Q: What about the “% damage” value ([1]; 14 DAT, rate 0.350 g/ha (A alone)) of the same molecule?
A: The value was 75%.

Q: And the “% damage” value [2, 7]?
A: Its value is 67%.

Q: What about the “% damage” value [2, 9] of the same molecule?
A: Its value is 96%.

Q: And the “% damage” value [2, 8]?
A: Its value is 35%.

Q: What about the “% damage” value [2, 10] of the same molecule?
A: Its value is 83%.

Q: What about the “% damage” value ([3]; 7 DAT) of the same molecule?
A: Its value is 10%.

Q: And the “% damage” value ([3]; 10 DAT)?
A: The value was 56%.

Q: And the “% damage” value ([3]; 11 DAT)?
A: The value was 10% and 18% and 19%.

Q: What about the “% damage” value ([3]; 42 DAT) of the same molecule?
A: The value was 45%.

Q: What about the “% damage” value ([4]; 4 DAT) of the same molecule?
A: Its value is 28%.

Q: What about the “% damage” value ([4]; 10 DAT) of the same molecule?
A: The value was 35%.

Q: What about the “% damage” value ([5]; 2 DAT) of the same molecule?
A: Its value is 55%.

Q: What about the “% damage” value ([5]; 8 DAT) of the same molecule?
A: The value was 34%.

Q: And the “% damage” value [6, 7]?
A: The value was 95%.

Q: What about the “% damage” value [6, 9] of the same molecule?
A: The value was 98%.

Q: What about the “% damage” value [6, 8] of the same molecule?
A: The value was 85%.

Q: And the “% damage” value [6, 10]?
A: Its value is 93%.

— US20130102463A1, “Herbicidal Compositions” (BASF SE, priority 2010, published 2013)
